Measurements reported in PMC3566758 (Beilstein Journal of Organic Chemistry, 2013).
≈ marks a conversion by molar mass, not a printed value. Read-outs that look alike come from different tables or passages of the source.

Legend:
[1] = physchem
[2] = test system: measles virus (MeV); test: measles virus cytopathic effect (CPE) reduction assay; assay type: cell-based; settings: Measles morbillivirus, read-out: MeV (CPE) 50% inhibitory concentration
Procedure: A small set of compounds was synthesized based on variations of 1 by replacing the p-methoxyphenyl group with other substituted phenyl rings or heterocyclic rings. The compounds were initially assayed in two screening assays: (1) a measles virus cytopathic effect (CPE) reduction assay and (2) a solubility assay based on laser nephelometry. Unfortunately, compounds with the highest aqueous solubilities (>100 µg/mL) had the poorest antiviral activity (i.e., 18a and 18e, Table 1).

[3] = test system: measles virus (MeV) recombinant; test: microbe, parasite or virus in culture; assay type: cell-based; settings: for EC50: Measles morbillivirus
[4] = microbe, parasite or virus in culture; assay type: cell-based; settings: Influenza A virus, WSN, read-out: EC50 WSN
[5] = in vitro
[6] = set-up: method as in earlier work; settings: ref 15 (Pharmacokinetics Study of JMN3-003. Unpublished results); cited from earlier work
[7] = test system: MeV; test: virus yield reduction assay; assay type: cell-based; settings: Measles morbillivirus, read-out: MeV 50% inhibitory concentration, virus yield reduction assay
[8] = pH 7.4, aqueous buffer, kinetic from dmso stock
[9] = averages of four experiments, highest concentration assessed 75 μM
[10] = pH 3, aqueous buffer, kinetic from dmso stock
[11] = pH 5, aqueous buffer, kinetic from dmso stock

Compound	solubility [1, 8] [µg/mL]	IC50 [2, 9] [nM]	EC50 ([3]; read-out: EC50 MeV) [nM]	EC50 [4] [nM]	CC50 [5] [nM]	other results
Cc1ccc(NC(=O)C(C)Sc2nc3ccccc3n2CCN2CCNCC2)c(Cl)c1 (stereo not shown) [Compound 18e]	120 (≈ 262 µM)	> 75000	–	–	–	solubility ([1]; pH 7.4): > 100 µg/mL
Cc1ccc(NC(=O)C(C)Sc2nc3ccccc3n2C2CCCN(C)C2)c(Cl)c1 (stereo not shown) [Compound 18b]	19 (≈ 42.9 µM)	–	–	–	–	IC50 [2]: > 290 nM
Cc1ccc(NC(=O)C(C)Sc2nc3ccccc3n2CCN2CCOCC2)c(Cl)c1 (stereo not shown) [Compound 18d]	22 (≈ 47.9 µM)	4900	–	–	–	–
Cc1ccc(NC(=O)[C@@H](C)Sc2nc3ccccc3n2-c2ccc(CCN3CCOCC3)cc2)c(Cl)c1 [(R)-14c]	–	–	530	120	–	–
COc1ccc(-n2c(S[C@H](C)C(=O)Nc3ccc(C)cc3Cl)nc3ccccc32)cc1 [(R)-1]	–	–	880	160	> 50000	–
Cc1ccc(NC(=O)[C@@H](C)Sc2nc3ccccc3n2-c2ccccc2CN2CCN(C)CC2)c(Cl)c1 [(R)-14a]	–	–	470	120	–	–
Cc1ccc(NC(=O)[C@H](C)Sc2nc3ccccc3n2-c2ccc(CCN3CCOCC3)cc2)c(Cl)c1 [(S)-14c]	–	–	180	36	–	–
Cc1ccc(NC(=O)[C@@H](C)Sc2nc3ccccc3n2-c2cccc(CCN3CCOCC3)c2)c(Cl)c1 [(R)-14b]	–	–	210	110	> 50000	–
COc1ccc(-n2c(S[C@@H](C)C(=O)Nc3ccc(C)cc3Cl)nc3ccccc32)cc1 [(S)-1]	–	–	37	5	> 50000	–
Cc1ccc(NC(=O)C(C)Sc2nc3ccccc3n2N2CCN(C)CC2)c(Cl)c1 (stereo not shown) [Compound 18c]	< 15	> 75000	–	–	–	–
Cc1ccc(NC(=O)C(C)Sc2nc3ccccc3n2-c2ccc(CCN3CCOCC3)cc2)c(Cl)c1 (stereo not shown) [Compound 14c]	25 (≈ 46.7 µM)	600	110	43	–	ΔEC50, (S)-enantiomer versus (R)-enantiomer ([3]; MeV and WSN EC50 comparisons): < 3 fold; solubility [1, 10]: 212 µg/mL (≈ 396 µM); solubility [1, 11]: 51 µg/mL (≈ 95.3 µM)
COc1ccc(-n2c(SC(C)C(=O)Nc3ccc(C)cc3Cl)nc3ccccc32)cc1 (stereo not shown) [Compound 1]	< 15	3100	31	13	> 50000	oral bioavailability [6]: low; solubility [1]: < 15 µg/mL; solubility [1, 10]: < 15 µg/mL; solubility [1, 11]: < 15 µg/mL
Cc1ccc(NC(=O)C(C)Sc2nc3ccccc3n2-c2cccc(CCN3CCOCC3)c2)c(Cl)c1 (stereo not shown) [Compound 14b]	15 (≈ 28 µM)	200	13	0.3	> 50000	solubility [1, 10]: 158 µg/mL (≈ 295 µM); solubility [1, 11]: 33 µg/mL (≈ 61.7 µM)
Cc1ccc(NC(=O)[C@H](C)Sc2nc3ccccc3n2-c2ccccc2CN2CCN(C)CC2)c(Cl)c1 [(S)-14a]	–	–	68	4	25000	–
Cc1ccc(NC(=O)[C@H](C)Sc2nc3ccccc3n2-c2cccc(CCN3CCOCC3)c2)c(Cl)c1 [(S)-14b]	–	–	11	1	> 50000	EC50 ([3]; WSN, read-out: EC50 values against the two viruses): 1 to 11 nM
Cc1ccc(NC(=O)C(C)Sc2nc3ccccc3n2-c2ccccc2CN2CCN(C)CC2)c(Cl)c1 (stereo not shown) [Compound 14a]	20 (≈ 37.4 µM)	179	41	8	–	solubility [1, 10]: > 300 µg/mL; solubility [1, 11]: 92 µg/mL (≈ 172 µM)
Cc1ccc(NC(=O)C(C)Sc2nc3ccccc3n2-c2cccc(CCn3ncnn3)c2)c(Cl)c1 (stereo not shown) [Compound 18g]	< 15	–	–	–	–	IC50 [7]: 50 nM
Cc1ccc(NC(=O)C(C)Sc2nc3ccccc3n2-c2cccc(CN3CCOCC3)c2)c(Cl)c1 (stereo not shown) [Compound 18f]	< 15	270	–	–	–	–
